Test results from patent USRE37670E1, “Antiproliferative and neurotrophic molecules” (American Biogenetics Inc., priority 1994, dated 2002).

Experiments:
[1] = tested on: neuro-2a neuroblastoma cells; experiment: Neurite outgrowth / differentiation, scanning electron microscopy; format: cell-based, mouse; conditions: for neurite outgrowth: 48 hours
Protocol: Neuroblastoma cells were cultured in the presence of 2-n-butyl-4-pentynoic acid (1.0 mM, 2 mM); and 2-n-pentyl-pentynoic acid (0.3 mM, 0.5 mM). Test medium was added to cells after 24 hours in culture and maintained as a test medium for 48 hours after which they were fixed in 2.5% glutaraldehyde and […] sodium phosphate buffer overnight at 4° C. Cells were postfixed with osmium tetroxide and prepared for scanning microscopy as described.
The neurotrophic activity associated with valproate and its analogues may be determined based on in vitro indices of differentiation, including inhibition of mitosis, increase in neurite outgrowth, and NCAM expression. For example, the ability to promote neurite outgrowth is correlated with enhanced survival of certain cultured neural cells including embryonic sensory and sympathetic neurons. Proliferating immature neuroblasts, in vitro, have a rounded shape and are loosely adherent to culture surfaces. In the presence of a neurotrophic factor, these cells become more adherent and sprout processes known in the art as neurites. Accordingly, in vitro neurite outgrowth may be used as an assay for determining concentrations of compound in contact with target cells which would be expected to achieve desirable neuroprotecting effects.
Cells which were to be examined by scanning electron microscopy were grown as previously described in 25cm^2 flasks. Following 48 h exposure to the agent, cells were fixed in a solution of 2.5% glutaraldehyde in 0.1M sodium phosphate buffer, pH 7.4, overnight at 4° C. The cells were post-fixed subsequently in phosphate-buffered 1% osmium tetroxide for 1 h at room temperature, washed and were dehydrated gradually for 1 hour using a series of ethanol concentrations stepwise from 20, 40, 60, 80 to a final concentration 100%.
Sections of the base of the tissue culture flask were removed and were critical point dried to minimize shrinkage and cracking. This was achieved by placing the samples in a Polaron critical point dryer and purging the chamber several times with CO2 to remove all traces of ethanol. After 1 h the temperature and pressure were increased to 40° C. and 1200 lbs/in^2, respectively, at which stage the critical point for carbon dioxide had been reached and drying was completed.
Specimens were subsequently removed from the chamber, mounted on stubs suitable for scanning electron microscopy using conductive carbon cement (Neubauer) and were sputter coated with gold under vacuum (5×10^−2 torr) in the presence of argon gas at a current of 20 mA for 3 minutes (Polaron E5100). Following gold-coating, samples were examined in the scanning electron microscope (JEOL 35C) at an accelerating voltage of 15 kV.

Teratogenic activity = conditions: in vivo
Excerpt: Nau, H. et al., Pharmacol. & Toxicol. (1991) 69:310-321.

[2] = tested on: mouse neuro-2a neuroblastoma cells; experiment: Antiproliferative assay, cell counting after 48 h; format: cell-based
Protocol: Neuro-2a neuroblastoma cells were cultured in 25 cm^2 flasks for 48 hours in the presence of test medium. After 48 hours, cells were observed, photographed and harvested with trypsin for counting using a haemocytometer. Cell number is expressed as percentage mean±SEM (n=3) of control values.
Accordingly, representative cells may be cultured in vitro in the presence of varying concentration of test compound. At an appropriate time, the cells under the different conditions are examined for the appropriate parameter (for example, cell number for antimitotic activity; neurite outgrowth for neurotrophic activity) and the ED50 may be determined.
Antiproliferative and neuroprotective actions should be sufficient to achieve the desired inhibition of mitosis or neuroprotection without serious hetaptotoxic side effects. […] Dose response curves may be determined first in vitro in a relevant animal model to determine ranges of expected therapeutic concentrations in humans. […] Other cell lines, including those of human origin may be used to assesses activity as well.
The mouse neuro-2a neuroblastoma cell line (Klebe and Ruddle, 1969 J. Cell Biol., 43:69A) was cultured in Dulbecco's modified Eagle's medium (DMEM; Flow Laboratories) supplemented with 10% fetal bovine serum (Tissue Culture Services), […] glutamine and 100 μg/ml of gentamicin or 100 units/ml and 100 μg/ml of penicillin/streptomycin antibiotics (Sigma Chemicals). The cells were maintained in a water-humidified atmosphere of 9% CO2at 37° C. Cells were passaged using 0.025% trypsin (Gibco) in DMEM, and were seeded at a density of 1×10^4 cells/cm^2.
Neuro-2a cells were seeded in 25cm^2 flasks (Costar) at a density of 1×10^4 cells/cm^2. Following a recovery period of 24 h, the agent to be examined was added to the cells in a vehicle of dimethyl sulphoxide (DMSO), the volume of which was 0.2% of the total volume of medium bathing the cells. A flask containing the DMSO vehicle alone was employed as control. Following incubation for 48h, cells were examined using an inverted phase contrast microscope (Leitz Diavert) and photographed (Ilford 50ASA film). Cells were then harvested by trypsinization and were counted using a haemocytometer (improved Neubauer model).

[3] = tested on: Neural Cell Adhesion Molecule (NCAM) in neuro-2a neuroblastoma cells; experiment: NCAM immunofluorescence microscopy; format: cell-based, mouse; conditions: 1.0 mm; compared to control cells
Protocol: FIGS. 3A-1, 3A-2 and 3B: Neural Cell Adhesion Molecule (NCAM) immunofluorescence in neuro-2a neuroblastoma cells. […] Panel B. Neuroblastoma cells were cultured for 48 hours in the presence of increasing concentrations of 2-n-butyl-4-pentynoic acid and 2-n-pentyl-4-pentynoic acid. They were then fixed and prepared for staining with rabbit anti-NCAM antibody. A second anti-rabbit antibody conjugated to rhodamine was incubated with the cells to detect bound anti-NCAM antibody. […] Immunofluorescence is expressed as mean +/− SEM.
Cells were seeded in 24-well plates at a density of 1×10^4 cells/cm^2. Following a recovery period 24 h they were exposed for an additional 48 h to the drug under investigation. […] The cells were again washed three times with phosphate buffered saline pH 7.4 and were then mounted using Citifluor (Agar Scientific) containing a fluorescence enhancer. Fluorescence of rhodamine was visualized using an excitatory wavelength of 535 nm (Leica filter block N2.1) on a Leitz DMRB fluorescence microscope. Fluorescence intensity was examined at points of cell-cell contact using a Quantimet 500 Image Analysis System. Fluorescence intensity is expressed as grey level at points of cell contact relative to that observed in the control.

[4] = literature; cited from earlier work
[5] = experimental models; literature; cited from earlier work
[6] = human; literature; cited from earlier work
[7] = tested on: neural derived cell proliferation; conditions: literature; cited from earlier work

For `C#CCC(CC(C)C)C(=O)O` (stereo not drawn), the prodifferentiative potency [1] was “low”, the teratogenic potency (Teratogenic activity) was “low” and the “antiproliferative potency / activity” value [2] was “low”.

For `C#CCC(CCCCCC)C(=O)O` (racemic) [2-n-hexyl-4-pentynoic acid, (±)-2-(2-propinyl)-Octanoic acid], the teratogenic potency (Teratogenic activity) was “most potent”.

With `C#CCC(CCCC)C(=O)O` (stereo not drawn) [2-n-butyl-4-pentynoic acid] the neurite outgrowth ([1]; 1.0 mM, 2 mM) was “Induction of neurite outgrowth” and the teratogenic potency (Teratogenic activity) was “most potent”.

With `C#CCC(CCCCC)C(=O)O` (stereo not drawn) [2-n-pentyl-4-pentynoic acid] the neurite outgrowth ([1]; 0.3 mM, 0.5 mM) was “Induction of neurite outgrowth”, the “immunofluorescence directed against NCAM” value [3] was “increased immunofluorescence” and the teratogenic potency (Teratogenic activity) was “most potent”.

In the case of `C#CCC(CCC)C(=O)O` (stereo not drawn) [2-n-propyl-4-pentynoic acid], the “teratogenic potency of S-enantiomer relative to R-enantiomer” value [4] is listed as “more potent” and the teratogenic potency (Teratogenic activity) is listed as “most potent”.

In the case of `C=CCC(CCC)C(=O)O` (stereo not drawn) [Example 4-en-VPA, 2-n-propyl-4-pentenoic acid], the “teratogenic potency of S-enantiomer relative to R-enantiomer” value [4] is given as “more potent”.

For `CC/C=C(\CCC)C(=O)O` [IV], the teratogenic activities [4] is listed as “very low or undetectable”, the cellular neurotrophic activity [1] is listed as “lowers, but does not abolish” and the “antiproliferative potency / activity” value [2] is listed as “lowers, but does not abolish”. The anticonvulsant properties [5] was “good”.

For `C#CC[C@H](CCC)C(=O)O` [S-2-n-propyl-4-pentynoic acid], the “teratogenic potency of S-enantiomer relative to R-enantiomer” value [4] is listed as “significantly greater”.

In the case of `CC#CCC(CCC)C(=O)O` (stereo not drawn) [VI], the teratogenic activities [4] is given as “very low or undetectable”, the cellular neurotrophic activity [1] is given as “lowers, but does not abolish” and the “antiproliferative potency / activity” value [2] is given as “lowers, but does not abolish”. For the same compound, the anticonvulsant properties [5] was “good”.

With `C/C=C\CC(CCC)C(=O)O` (stereo not drawn) [V] the cellular neurotrophic activity [1] was “lowers, but does not abolish” and the “antiproliferative potency / activity” value [2] was “lowers, but does not abolish”.

For `CCCC(CCC)C(=O)O` [valproate, valproic acid], the “transfer into the central nervous system” value [6] is given as “very limited” and the antiproliferative action [7] is given as “potently inhibit”.

In the case of `CCCC(CCC)C(N)=O` [valpromide], the teratogenic activities [4] is listed as “non-teratogenic” and the antiproliferative action [7] is listed as “not antiproliferative”.
